Assay results: ChEMBL document CHEMBL1152939, “p-Terphenyls from the fruiting bodies of Paxillus curtisii and their antioxidant properties” (Bioorg Med Chem, 2009)
Activity calls are given as the source filed them. The rule behind the calls is not given here.

test system: Nucleic Acid; test: Protection against ferrous and hydrogen peroxide-induced single strand breakage of pBR322 DNA at 50 uM after 30 mins using ethium bromide staining; conditions: Escherichia coli

Structure (SMILES)	Activity
CC(=O)Oc1c(O)c(-c2ccc(O)cc2)c(OC(C)=O)c(O)c1-c1ccc(O)cc1	Active
CC(=O)N(O)CCCCCNC(=O)CCC(=O)N(O)CCCCCNC(=O)CCC(=O)N(O)CCCCCN	Active
COc1ccc(O)c(C(C)(C)C)c1.COc1ccc(O)cc1C(C)(C)C [BUTYLATED HYDROXYANISOLE]	inactive
CC(=O)Oc1c(OC(=O)C[C@@H](C)O)c(-c2ccc(O)cc2)c(OC(=O)CCc2ccccc2)c(OC(=O)C[C@@H](C)O)c1-c1ccc(O)cc1 [CURTISIAN E]	Active
CC(=O)O[C@H](C)CC(=O)Oc1c(O)c(-c2ccc(O)cc2)c(OC(=O)C[C@@H](C)O)c(O)c1-c1ccc(O)cc1 [CURTISIAN I]	Active
CC(=O)O[C@H](C)CC(=O)Oc1c(O)c(-c2ccc(O)cc2)c(OC(=O)CCc2ccccc2)c(O)c1-c1ccc(O)cc1 [CURTISIAN J]	Active
C[C@@H](O)CC(=O)Oc1c(O)c(-c2ccc(O)cc2)c(OC(=O)CCc2ccccc2)c(O)c1-c1ccc(O)cc1 [CURTISIAN K]	Active
CC(=O)Oc1c(O)c(-c2ccc(O)cc2)c(OC(=O)C[C@@H](C)O)c(O)c1-c1ccc(O)cc1 [CURTISIAN L]	Active
CC(=O)O[C@H](C)CC(=O)Oc1c(O)c(-c2ccc(O)cc2)c(OC(=O)C[C@@H](C)OC(C)=O)c(O)c1-c1ccc(O)cc1 [CURTISIAN M]	Active
CC(=O)Oc1c(O)c(-c2ccc(O)cc2)c(OC(=O)C[C@@H](C)OC(C)=O)c(O)c1-c1ccc(O)cc1 [CURTISIAN N]	Active
CCCC(=O)Oc1c(O)c(-c2ccc(O)cc2)c(OC(C)=O)c(O)c1-c1ccc(O)cc1 [CURTISIAN O]	Active
CC(=O)Oc1c(O)c(-c2ccc(O)cc2)c(OC(=O)CCc2ccccc2)c(O)c1-c1ccc(O)cc1 [CURTISIAN P]	Active
O=C(CCc1ccccc1)Oc1c(O)c(-c2ccc(O)cc2)c(OC(=O)CCc2ccccc2)c(O)c1-c1ccc(O)cc1 [CURTISIAN R]	Active
CCCC(=O)Oc1c(O)c(-c2ccc(O)cc2)c(OC(=O)CCc2ccccc2)c(O)c1-c1ccc(O)cc1 [CURTISIAN S]	Active
CC(=O)O[C@H](C)CC(=O)Oc1c(O)c(-c2ccc(O)cc2)c(OC(=O)c2ccccc2)c(O)c1-c1ccc(O)cc1 [CURTISIAN T]	Active
CC(=O)Oc1c(OC(=O)C[C@@H](C)O)c(-c2ccc(O)cc2)c(OC(C)=O)c(OC(=O)C[C@@H](C)O)c1-c1ccc(O)cc1 [CURTISIAN U]	Active
CC(=O)Oc1c(OC(=O)CCc2ccccc2)c(-c2ccc(O)cc2)c(OC(=O)C[C@@H](C)O)c(OC(=O)C[C@@H](C)O)c1-c1ccc(O)cc1 [CURTISIAN V]	Active
Cc1c(C)c2c(c(C)c1O)CCC(C)(C(=O)O)O2 (stereo not drawn) [TROLOX]	Active

test system: not listed separately; test: Antioxidant activity against ferrous and hydrogen peroxide-induced hydroxyl radical assessed inhibition of radical-mediated 2-deoxyribose damage at 100 uM after 45 mins; assay type: functional; conditions: not given

Structure (SMILES)	Activity
CC(=O)Oc1c(O)c(-c2ccc(O)cc2)c(OC(C)=O)c(O)c1-c1ccc(O)cc1	Active
CC(=O)Oc1c(OC(=O)C[C@@H](C)O)c(-c2ccc(O)cc2)c(OC(=O)CCc2ccccc2)c(OC(=O)C[C@@H](C)O)c1-c1ccc(O)cc1 [CURTISIAN E]	Active
C[C@@H](O)CC(=O)Oc1c(O)c(-c2ccc(O)cc2)c(OC(=O)CCc2ccccc2)c(O)c1-c1ccc(O)cc1 [CURTISIAN K]	Active
CC(=O)O[C@H](C)CC(=O)Oc1c(O)c(-c2ccc(O)cc2)c(OC(=O)C[C@@H](C)OC(C)=O)c(O)c1-c1ccc(O)cc1 [CURTISIAN M]	Active
CC(=O)Oc1c(O)c(-c2ccc(O)cc2)c(OC(=O)C[C@@H](C)OC(C)=O)c(O)c1-c1ccc(O)cc1 [CURTISIAN N]	Active
CCCC(=O)Oc1c(O)c(-c2ccc(O)cc2)c(OC(C)=O)c(O)c1-c1ccc(O)cc1 [CURTISIAN O]	Active

test system: not listed separately; test: Antioxidant activity assessed as ABTS radical scavenging activity after 6 mins by cation decolorization assay; assay type: functional; conditions: not given

Structure (SMILES)	IC50
CC(=O)Oc1c(O)c(-c2ccc(O)cc2)c(OC(C)=O)c(O)c1-c1ccc(O)cc1	8.77 µM
COc1ccc(O)c(C(C)(C)C)c1.COc1ccc(O)cc1C(C)(C)C [BUTYLATED HYDROXYANISOLE]	10.7 µM
O=C(O)/C=C/c1ccc(O)c(O)c1 [CAFFEIC ACID]	5.37 µM
CC(=O)Oc1c(OC(=O)C[C@@H](C)O)c(-c2ccc(O)cc2)c(OC(=O)CCc2ccccc2)c(OC(=O)C[C@@H](C)O)c1-c1ccc(O)cc1 [CURTISIAN E]	> 500 µM
CC(=O)O[C@H](C)CC(=O)Oc1c(O)c(-c2ccc(O)cc2)c(OC(=O)C[C@@H](C)O)c(O)c1-c1ccc(O)cc1 [CURTISIAN I]	60.4 µM
CC(=O)O[C@H](C)CC(=O)Oc1c(O)c(-c2ccc(O)cc2)c(OC(=O)CCc2ccccc2)c(O)c1-c1ccc(O)cc1 [CURTISIAN J]	13.5 µM
C[C@@H](O)CC(=O)Oc1c(O)c(-c2ccc(O)cc2)c(OC(=O)CCc2ccccc2)c(O)c1-c1ccc(O)cc1 [CURTISIAN K]	11.3 µM
CC(=O)Oc1c(O)c(-c2ccc(O)cc2)c(OC(=O)C[C@@H](C)O)c(O)c1-c1ccc(O)cc1 [CURTISIAN L]	18.6 µM
CC(=O)O[C@H](C)CC(=O)Oc1c(O)c(-c2ccc(O)cc2)c(OC(=O)C[C@@H](C)OC(C)=O)c(O)c1-c1ccc(O)cc1 [CURTISIAN M]	8.15 µM
CC(=O)Oc1c(O)c(-c2ccc(O)cc2)c(OC(=O)C[C@@H](C)OC(C)=O)c(O)c1-c1ccc(O)cc1 [CURTISIAN N]	5.5 µM
CCCC(=O)Oc1c(O)c(-c2ccc(O)cc2)c(OC(C)=O)c(O)c1-c1ccc(O)cc1 [CURTISIAN O]	7.11 µM
CC(=O)Oc1c(O)c(-c2ccc(O)cc2)c(OC(=O)CCc2ccccc2)c(O)c1-c1ccc(O)cc1 [CURTISIAN P]	6.44 µM
O=C(CCc1ccccc1)Oc1c(O)c(-c2ccc(O)cc2)c(OC(=O)CCc2ccccc2)c(O)c1-c1ccc(O)cc1 [CURTISIAN R]	8.02 µM
CCCC(=O)Oc1c(O)c(-c2ccc(O)cc2)c(OC(=O)CCc2ccccc2)c(O)c1-c1ccc(O)cc1 [CURTISIAN S]	8.16 µM
CC(=O)O[C@H](C)CC(=O)Oc1c(O)c(-c2ccc(O)cc2)c(OC(=O)c2ccccc2)c(O)c1-c1ccc(O)cc1 [CURTISIAN T]	8.43 µM
CC(=O)Oc1c(OC(=O)C[C@@H](C)O)c(-c2ccc(O)cc2)c(OC(C)=O)c(OC(=O)C[C@@H](C)O)c1-c1ccc(O)cc1 [CURTISIAN U]	> 500 µM
CC(=O)Oc1c(OC(=O)CCc2ccccc2)c(-c2ccc(O)cc2)c(OC(=O)C[C@@H](C)O)c(OC(=O)C[C@@H](C)O)c1-c1ccc(O)cc1 [CURTISIAN V]	> 500 µM
Cc1c(C)c2c(c(C)c1O)CCC(C)(C(=O)O)O2 (stereo not drawn) [TROLOX]	7.91 µM

test system: not listed separately; test: Antioxidant activity assessed as superoxide radical anion scavenging activity after 30 mins by xanthine/xanthine oxidase method; assay type: functional; conditions: not given

Structure (SMILES)	IC50
CC(=O)Oc1c(O)c(-c2ccc(O)cc2)c(OC(C)=O)c(O)c1-c1ccc(O)cc1	> 500 µM
COc1ccc(O)c(C(C)(C)C)c1.COc1ccc(O)cc1C(C)(C)C [BUTYLATED HYDROXYANISOLE]	> 500 µM
O=C(O)/C=C/c1ccc(O)c(O)c1 [CAFFEIC ACID]	58 µM
CC(=O)Oc1c(OC(=O)C[C@@H](C)O)c(-c2ccc(O)cc2)c(OC(=O)CCc2ccccc2)c(OC(=O)C[C@@H](C)O)c1-c1ccc(O)cc1 [CURTISIAN E]	> 500 µM
CC(=O)O[C@H](C)CC(=O)Oc1c(O)c(-c2ccc(O)cc2)c(OC(=O)C[C@@H](C)O)c(O)c1-c1ccc(O)cc1 [CURTISIAN I]	> 500 µM
CC(=O)O[C@H](C)CC(=O)Oc1c(O)c(-c2ccc(O)cc2)c(OC(=O)CCc2ccccc2)c(O)c1-c1ccc(O)cc1 [CURTISIAN J]	> 500 µM
C[C@@H](O)CC(=O)Oc1c(O)c(-c2ccc(O)cc2)c(OC(=O)CCc2ccccc2)c(O)c1-c1ccc(O)cc1 [CURTISIAN K]	> 500 µM
CC(=O)Oc1c(O)c(-c2ccc(O)cc2)c(OC(=O)C[C@@H](C)O)c(O)c1-c1ccc(O)cc1 [CURTISIAN L]	> 500 µM
CC(=O)O[C@H](C)CC(=O)Oc1c(O)c(-c2ccc(O)cc2)c(OC(=O)C[C@@H](C)OC(C)=O)c(O)c1-c1ccc(O)cc1 [CURTISIAN M]	> 500 µM
CC(=O)Oc1c(O)c(-c2ccc(O)cc2)c(OC(=O)C[C@@H](C)OC(C)=O)c(O)c1-c1ccc(O)cc1 [CURTISIAN N]	> 500 µM
CCCC(=O)Oc1c(O)c(-c2ccc(O)cc2)c(OC(C)=O)c(O)c1-c1ccc(O)cc1 [CURTISIAN O]	> 500 µM
CC(=O)Oc1c(O)c(-c2ccc(O)cc2)c(OC(=O)CCc2ccccc2)c(O)c1-c1ccc(O)cc1 [CURTISIAN P]	> 500 µM
O=C(CCc1ccccc1)Oc1c(O)c(-c2ccc(O)cc2)c(OC(=O)CCc2ccccc2)c(O)c1-c1ccc(O)cc1 [CURTISIAN R]	> 500 µM
CCCC(=O)Oc1c(O)c(-c2ccc(O)cc2)c(OC(=O)CCc2ccccc2)c(O)c1-c1ccc(O)cc1 [CURTISIAN S]	> 500 µM
CC(=O)O[C@H](C)CC(=O)Oc1c(O)c(-c2ccc(O)cc2)c(OC(=O)c2ccccc2)c(O)c1-c1ccc(O)cc1 [CURTISIAN T]	> 500 µM
CC(=O)Oc1c(OC(=O)C[C@@H](C)O)c(-c2ccc(O)cc2)c(OC(C)=O)c(OC(=O)C[C@@H](C)O)c1-c1ccc(O)cc1 [CURTISIAN U]	> 500 µM
CC(=O)Oc1c(OC(=O)CCc2ccccc2)c(-c2ccc(O)cc2)c(OC(=O)C[C@@H](C)O)c(OC(=O)C[C@@H](C)O)c1-c1ccc(O)cc1 [CURTISIAN V]	> 500 µM
Cc1c(C)c2c(c(C)c1O)CCC(C)(C(=O)O)O2 (stereo not drawn) [TROLOX]	> 500 µM

test system: Radical scavenging activity; test: Antioxidant activity assessed as DPPH radical scavenging activity after 30 mins; assay type: functional; conditions: not given

Structure (SMILES)	IC50
CC(=O)Oc1c(O)c(-c2ccc(O)cc2)c(OC(C)=O)c(O)c1-c1ccc(O)cc1	> 500 µM
COc1ccc(O)c(C(C)(C)C)c1.COc1ccc(O)cc1C(C)(C)C [BUTYLATED HYDROXYANISOLE]	83 µM
O=C(O)/C=C/c1ccc(O)c(O)c1 [CAFFEIC ACID]	21.1 µM
CC(=O)Oc1c(OC(=O)C[C@@H](C)O)c(-c2ccc(O)cc2)c(OC(=O)CCc2ccccc2)c(OC(=O)C[C@@H](C)O)c1-c1ccc(O)cc1 [CURTISIAN E]	> 500 µM
CC(=O)O[C@H](C)CC(=O)Oc1c(O)c(-c2ccc(O)cc2)c(OC(=O)C[C@@H](C)O)c(O)c1-c1ccc(O)cc1 [CURTISIAN I]	> 500 µM
CC(=O)O[C@H](C)CC(=O)Oc1c(O)c(-c2ccc(O)cc2)c(OC(=O)CCc2ccccc2)c(O)c1-c1ccc(O)cc1 [CURTISIAN J]	> 500 µM
C[C@@H](O)CC(=O)Oc1c(O)c(-c2ccc(O)cc2)c(OC(=O)CCc2ccccc2)c(O)c1-c1ccc(O)cc1 [CURTISIAN K]	> 500 µM
CC(=O)Oc1c(O)c(-c2ccc(O)cc2)c(OC(=O)C[C@@H](C)O)c(O)c1-c1ccc(O)cc1 [CURTISIAN L]	> 500 µM
CC(=O)O[C@H](C)CC(=O)Oc1c(O)c(-c2ccc(O)cc2)c(OC(=O)C[C@@H](C)OC(C)=O)c(O)c1-c1ccc(O)cc1 [CURTISIAN M]	> 500 µM
CC(=O)Oc1c(O)c(-c2ccc(O)cc2)c(OC(=O)C[C@@H](C)OC(C)=O)c(O)c1-c1ccc(O)cc1 [CURTISIAN N]	> 500 µM
CCCC(=O)Oc1c(O)c(-c2ccc(O)cc2)c(OC(C)=O)c(O)c1-c1ccc(O)cc1 [CURTISIAN O]	> 500 µM
CC(=O)Oc1c(O)c(-c2ccc(O)cc2)c(OC(=O)CCc2ccccc2)c(O)c1-c1ccc(O)cc1 [CURTISIAN P]	> 500 µM
O=C(CCc1ccccc1)Oc1c(O)c(-c2ccc(O)cc2)c(OC(=O)CCc2ccccc2)c(O)c1-c1ccc(O)cc1 [CURTISIAN R]	> 500 µM
CCCC(=O)Oc1c(O)c(-c2ccc(O)cc2)c(OC(=O)CCc2ccccc2)c(O)c1-c1ccc(O)cc1 [CURTISIAN S]	> 500 µM
CC(=O)O[C@H](C)CC(=O)Oc1c(O)c(-c2ccc(O)cc2)c(OC(=O)c2ccccc2)c(O)c1-c1ccc(O)cc1 [CURTISIAN T]	> 500 µM
CC(=O)Oc1c(OC(=O)C[C@@H](C)O)c(-c2ccc(O)cc2)c(OC(C)=O)c(OC(=O)C[C@@H](C)O)c1-c1ccc(O)cc1 [CURTISIAN U]	> 500 µM
CC(=O)Oc1c(OC(=O)CCc2ccccc2)c(-c2ccc(O)cc2)c(OC(=O)C[C@@H](C)O)c(OC(=O)C[C@@H](C)O)c1-c1ccc(O)cc1 [CURTISIAN V]	> 500 µM
Cc1c(C)c2c(c(C)c1O)CCC(C)(C(=O)O)O2 (stereo not drawn) [TROLOX]	33 µM
